Experimental data reported in patent publication US6479447B2, “Bleaching composition for dry cleaning containing transition metal bleach catalyst” (Unilever Home & Personal Care USA, division of Conopco, Inc., priority 1999, dated 2002).

Experiment: log P, partitioning between octanol and water
Type: physicochemical
Conditions: octanol/water at 25° C.; usually determined with hexafluorophosphate as counterion
Experimental: To the skilled person, log P is a well known coefficient for describing the partitioning of a compound between octanol and water at ambient temperature (25° C.). Whereby P is the concentration of the bleach catalyst in octanol divided by the concentration of bleach catalyst in water. (Leo et al. Chem Rev 1971, 71, 525). The log P is usually determined in the presence of hexafluorophophate as the counterion.

Dimanganese-tris-μ-oxo-bis(2-octyl-1,4,7-trimethyl-1,4,7-triazacyclononane) bis(Hexasulphate) [Catalyst 2]
log P: more than 3

CN1CCN(C)CCN(C)CC1.CN1CCN(C)CCN(C)CC1.F[P-](F)(F)(F)(F)F.F[P-](F)(F)(F)(F)F.[Mn+4].[Mn+4].[O-2].[O-2].[O-2] [Catalyst 1, Dimanganese-tris-μ-oxo-bis(1,4,7-trimethyl-1,4,7-triazacyclononane) bis(Hexafluorophosphate)]
log P: less than 3
